Assay results: patent US8227207B2, “Bioactive peptides derived from the proteins of egg white by means of enzymatic hydrolysis” (Consejo Superior de Investigaciones Cientifcas, priority 2004, dated 2012)
Residues, ends and D or L forms follow the SMILES beside them.

Tests used:
[1] = test system: angiotensin converting enzyme (ACE) (EC 3.4.15.1, Sigma); experiment: In vitro inhibitory activity of the angiotensin converting enzyme (ACEI activity); type: biochemical; conditions: result in words
Method: Measurement of the Inhibitory Activity of the Angiotensin Converting Enzyme (ACEI Activity)
(§1) The inhibitory activity of the angiotensin converting enzyme (ACE) is measured in vitro according to the method of D. W. Cushman and H. S. Cheung (Spectrophotometric assay and properties of the angiotensin-converting enzyme of rabbit lung. Biochemical Pharmacology, 1971, 20: 1637-1648), later on modified by Y. K. Kim, S. Yoon, D. Y. Yu, B. Lönnerdal and B. H. Cheung (Novel angiotensin-I-converting enzyme inhibitory peptides derived from recombinant human αs1-casein expressed in Escherichia coli, Journal of Dairy Research 1999, 66, 431-439).
(§2) The substrate hippuryl histidyl leucine (HHL, Sigma Chemicals Co., St. Louis, Mo., USA) is dissolved in a 0.1 M borate buffer with 0.3 M NaCl pH 8.3 to obtain a final concentration of 5 mM. To 100 μl of substrate are added 40 μl of each of the samples whose ACEI activity it is wished to determine. The ACE enzyme (EC 3.4.15.1, Sigma) is added, dissolved in 50% glycerol and diluted 1/10 in bidistilled water at the moment of conducting the assay. The reaction is carried out at 37° C. for 30 minutes in a water-bath. The enzyme is deactivated by lowering the pH with 150 μl of 1 N HCl. The hippuric acid formed is extracted with 1000 μl of ethyl acetate. Following vortex stirring for 20 seconds, it is centrifuged at 4000 rpm for 10 minutes at room temperature. 750 μl of the organic phase are taken and evaporated by heating at 95° C. for 10 minutes. The hippuric acid residue is redissolved in 800 μl of bidistilled water and, following stirring for 20 seconds, the absorbency at 228 nm is measured in a Dur-70 spectrophotometer from Beckman Instruments, Inc., Fullerton, USA.
(§3) In order to calculate the percentage of ACEI activity, the following formula is used
(§4) The blank is used for correcting the background absorbency. This contains substrate, enzyme and 20 μl of bidistilled water in place of the sample, and the reaction is halted at zero time. The control implies a hundred percent of the enzymatic action on the substrate in the absence of inhibitors and contains 20 μl of water in place of the sample and is incubated the same time as the sample.
(§5) The results are presented as the IC50 (μM or μg/ml) or concentration at which 50% of the enzyme's activity is inhibited. The concentration of protein is determined by means of the bicinchonomic acid (BCA) assay (Pierce, Rockford, Ill., USA) using bovine seroalbumin as reference.

[2] = test system: spontaneously hypertensive rats (SHR); conditions: SHR; literature; ovokinin orally 100 mg/kg; cited from earlier work
[3] = test system: canine mesenteric arteries; conditions: literature; cited from earlier work
[4] = biological target: T1, angiotensin converting enzyme (ACE, EC 3.4.15.1) (Oryctolagus cuniculus, UniProt P12822); type: biochemical
T1 sequence (P12822 34-1310): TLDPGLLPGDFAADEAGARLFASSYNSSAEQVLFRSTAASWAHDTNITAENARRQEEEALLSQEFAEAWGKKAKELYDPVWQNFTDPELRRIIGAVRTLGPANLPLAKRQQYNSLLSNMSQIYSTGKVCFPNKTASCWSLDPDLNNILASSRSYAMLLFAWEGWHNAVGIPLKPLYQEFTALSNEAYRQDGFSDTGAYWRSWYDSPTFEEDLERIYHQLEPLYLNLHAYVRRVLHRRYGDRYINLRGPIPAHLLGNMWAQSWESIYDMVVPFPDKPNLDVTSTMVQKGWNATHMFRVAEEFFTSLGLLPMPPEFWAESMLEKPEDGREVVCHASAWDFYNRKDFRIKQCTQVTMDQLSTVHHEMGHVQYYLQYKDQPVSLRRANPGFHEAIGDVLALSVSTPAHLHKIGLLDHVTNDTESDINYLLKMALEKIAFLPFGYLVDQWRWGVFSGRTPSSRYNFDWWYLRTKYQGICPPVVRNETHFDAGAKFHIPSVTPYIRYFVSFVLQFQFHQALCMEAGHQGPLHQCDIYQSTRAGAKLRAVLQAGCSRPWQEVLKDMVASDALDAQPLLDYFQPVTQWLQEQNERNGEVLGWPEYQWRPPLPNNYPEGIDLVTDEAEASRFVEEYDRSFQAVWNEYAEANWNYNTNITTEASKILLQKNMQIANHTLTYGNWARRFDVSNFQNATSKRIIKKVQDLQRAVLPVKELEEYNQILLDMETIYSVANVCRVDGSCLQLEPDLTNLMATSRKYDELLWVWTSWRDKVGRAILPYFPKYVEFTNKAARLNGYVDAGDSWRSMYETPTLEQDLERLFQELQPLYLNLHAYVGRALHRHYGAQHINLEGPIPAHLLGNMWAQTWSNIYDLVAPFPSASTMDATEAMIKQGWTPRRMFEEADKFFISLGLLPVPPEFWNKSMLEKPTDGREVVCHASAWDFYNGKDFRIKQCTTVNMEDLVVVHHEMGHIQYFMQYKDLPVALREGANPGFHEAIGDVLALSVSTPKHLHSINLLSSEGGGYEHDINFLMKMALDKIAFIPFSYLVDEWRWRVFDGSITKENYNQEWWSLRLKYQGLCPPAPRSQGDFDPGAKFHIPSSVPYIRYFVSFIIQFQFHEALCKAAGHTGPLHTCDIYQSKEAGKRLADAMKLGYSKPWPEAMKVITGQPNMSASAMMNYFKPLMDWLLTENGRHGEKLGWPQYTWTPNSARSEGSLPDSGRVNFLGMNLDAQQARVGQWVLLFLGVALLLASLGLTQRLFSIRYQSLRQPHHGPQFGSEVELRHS
Method: as §1, §2, §3, §4, §5

[5] = biological target: ACE (Homo sapiens, UniProt P12821); conditions: according to the cited authors; listed as ovokinin; cited from earlier work
[6] = test system: canine mesenteric arteries; conditions: listed as ovokinin; cited from earlier work
[7] = test system: spontaneously hypertensive rats (SHR); conditions: ovokinin oral 100 mg/kg, ovokinin (2-7) 10 mg/kg; cited from earlier work

ACE, sequence (P12821 30-1306, species assumed): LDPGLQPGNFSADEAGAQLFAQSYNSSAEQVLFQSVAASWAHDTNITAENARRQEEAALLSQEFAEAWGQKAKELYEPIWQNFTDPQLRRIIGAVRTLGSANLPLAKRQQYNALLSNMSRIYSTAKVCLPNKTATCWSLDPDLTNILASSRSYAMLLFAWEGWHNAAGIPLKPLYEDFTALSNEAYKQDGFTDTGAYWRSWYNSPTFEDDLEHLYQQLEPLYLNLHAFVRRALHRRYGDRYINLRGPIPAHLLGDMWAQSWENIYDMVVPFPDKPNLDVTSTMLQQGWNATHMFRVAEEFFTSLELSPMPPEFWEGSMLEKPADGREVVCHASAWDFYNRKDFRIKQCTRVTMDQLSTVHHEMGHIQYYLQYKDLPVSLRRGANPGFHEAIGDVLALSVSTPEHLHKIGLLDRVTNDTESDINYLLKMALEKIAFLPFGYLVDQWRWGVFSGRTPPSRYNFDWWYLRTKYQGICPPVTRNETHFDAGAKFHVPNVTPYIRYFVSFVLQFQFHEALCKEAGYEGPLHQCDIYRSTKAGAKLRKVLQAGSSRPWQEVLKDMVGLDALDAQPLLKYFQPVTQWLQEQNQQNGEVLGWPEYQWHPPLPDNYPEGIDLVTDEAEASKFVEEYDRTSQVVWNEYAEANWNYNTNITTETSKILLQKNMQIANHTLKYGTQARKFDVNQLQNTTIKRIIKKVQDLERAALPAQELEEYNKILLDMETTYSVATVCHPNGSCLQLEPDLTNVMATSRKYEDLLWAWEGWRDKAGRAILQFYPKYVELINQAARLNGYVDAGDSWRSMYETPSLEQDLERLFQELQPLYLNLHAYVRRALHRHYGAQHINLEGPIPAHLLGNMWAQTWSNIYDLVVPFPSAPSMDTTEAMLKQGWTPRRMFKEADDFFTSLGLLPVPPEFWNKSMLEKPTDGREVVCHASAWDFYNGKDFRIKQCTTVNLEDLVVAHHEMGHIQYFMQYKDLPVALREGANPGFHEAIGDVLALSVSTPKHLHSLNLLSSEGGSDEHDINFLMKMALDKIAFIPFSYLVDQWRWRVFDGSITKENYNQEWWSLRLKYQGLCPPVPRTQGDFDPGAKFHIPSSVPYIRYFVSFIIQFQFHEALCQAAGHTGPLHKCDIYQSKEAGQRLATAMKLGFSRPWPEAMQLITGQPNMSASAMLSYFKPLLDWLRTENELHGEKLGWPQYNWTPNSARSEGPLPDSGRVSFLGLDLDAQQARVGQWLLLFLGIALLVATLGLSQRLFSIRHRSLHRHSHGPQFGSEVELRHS

Structure (SMILES) | ACEI activity in vitro [1] | anti-hypertensive activity [2] | vasorelaxing activity [3] | ACEI activity in vitro (in words) ([4]; peptides) | IC50 ([4]; read-out: ACEI activity IC50, synthetic peptides) [µM] | ACEI activity (in words) [5] | vasorelaxing (vasodilatory) activity (in words) [6] | anti-hypertensive / vasodilatory activity in SHR (in words) [7]
CC(C)C[C@H](NC(=O)[C@H](Cc1ccccc1)NC(=O)[C@@H]1CCCN1C(=O)[C@H](Cc1cnc[nH]1)NC(=O)[C@H](CC(=O)O)NC(=O)[C@H](C)NC(=O)[C@H](CCCNC(=N)N)NC(=O)[C@@H](N)Cc1ccccc1)C(=O)O [SEQ. ID. No 5] (H-FRADHPFL-OH) | potent ACEI activity in vitro | possessed anti-hypertensive activity when administered orally to spontaneously hypertensive rats (SHR) at doses of 100 mg/kg | displayed vasorelaxing activity in canine mesenteric arteries | – | – | – | – | –
CC(C)C[C@H](NC(=O)[C@H](Cc1ccccc1)NC(=O)[C@@H]1CCCN1C(=O)[C@H](Cc1c[nH]cn1)NC(=O)[C@H](CC(=O)O)NC(=O)[C@H](C)NC(=O)[C@H](CCCNC(=N)N)NC(=O)[C@@H](N)Cc1ccccc1)C(=O)O [SEQ. ID. N^o 5] (H-FRADHPFL-OH; N-terminus and C-terminus assumed) | – | – | – | potent ACEI activity | 3.2 | did not possess ACEI activity | displayed vasorelaxing activity | possessed anti-hypertensive activity
